Laboratory results from US20240201172A1, “USE OF ODORANT RECEPTOR FOR SUPPRESSING LACTATE-INDUCED M2-TYPE DIFFERENTIATION OF TUMOR-ASSOCIATED MACROPHAGES AND TUMOR GROWTH” (KYUNGPOOK NATIONAL UNIVERSITY INDUSTRY-ACADEMIC COOPERATION …, priority 2021, published 2024).

Tests used:
Type in all cases: cell-based
lactate dehydrogenase = experiment: Lactate concentration in TCM of mouse tumor cell lines pretreated with oxamic acid; conditions: pretreatment of mouse tumor cell lines, FIG. 4A
Protocol: The concentrations of lactate and acetate in TCM of cells cultured at 80% confluency were measured using lactate and acetate colorimetric assay kits (BioVision, Milpitas, CA). Briefly, 50 μL of TCM was mixed with lactate or acetate enzyme mix and the probe according to the manual and reacted for 30 min at room temperature. The concentrations of cytokines in the conditioned medium of macrophages were measured using cytokine ELISA kits (R&D Systems). Briefly, 100 μL of conditioned medium was added to plates precoated with antibodies against IL-4, IL-10, and TGF-β. Samples were reacted with corresponding antibodies conjugated to biotin and then with horseradish peroxidase-labeled streptavidin. Absorbance at 570 nm was measured using a microplate reader. The concentrations of lactate, acetate, and cytokines were calculated from the standard curves.
To determine, though lactate is known to be important in M2 macrophage polarization, whether lactate is the main factor in TCM responsible for Olfr78-mediated M2 macrophage polarization, the prevent inventors treated WT BMDMs with TCM of mouse tumor cell lines pretreated with oxamic acid (OA), an inhibitor of lactate dehydrogenase that prevents lactate production. […] Up-regulation of M2 markers was attenuated (P<0.05) in WT BMDMs treated with lactate-depleted TCM (TCM+OA). […]

BMDMs = experiment: M1/M2 polarization of mouse BMDMs (flow cytometry, qRT-PCR, cell shape); conditions: for Olfr78 expression: BMDMs differentiated into M2 or M1 macrophages, FIG. 1B
Protocol: BMDMs were isolated from tibias and femurs of C57BL6 or Balb/c mice and cultured in DMEM supplemented with 10 ng/mL macrophage colony-stimulating factor (Gibco, Carlsbad, CA) and 10% FBS for 7 d. The culture medium was changed every other day. For M1 polarization, BMDMs were cultured with 20 ng/mL recombinant mouse IFN-γ (R&D Systems) plus 100 ng/mL LPS for 24 to 48 h. For M2 polarization, BMDMs were cultured with 20 ng/mL recombinant mouse IL-4 for 24 to 48 h. For lactate-mediated M2 polarization, BMDMs were treated with 10 mM lactate (Sigma-Aldrich, St. Louis, MO) at 37° C. in a humidified atmosphere containing 5% CO2 for 24 to 48 h.
(§1) Anti-CD11b, anti-CD3, anti-CD4, anti-CD8, anti-CD86, anti-F4/80, anti-CD206, anti-CD163, and anti-Gr1 antibodies were purchased from BioLegend (San Diego, CA). An anti-Olfr78 antibody was purchased from LSBio (Seattle, WA). Anti-CD206 and anti-CD86 antibody was purchased from Santa Cruz Biotechnology (Dallas, TX). Cells were fixed with 4% paraformaldehyde and then reacted with an untagged primary antibody or a dye-tagged antibody at 4° C. for 30 min in the dark. Cells treated with an untagged primary antibody (anti-Olfr78, anti-CD206, and anti-CD86) were washed and reacted with a dye-tagged secondary antibody. At least 10,000 or more events were analyzed using a flow cytometer (BD Bioscience, San Jose, CA). Data were evaluated using CellQuest Pro software (BD Biosciences). To prepare cell suspensions from tumor tissues, freshly excised tumors were fragmented into several pieces, minced into 2-3 mm^3 pieces, and reacted with collagenase D (Roche, Basel, Switzerland) and DNase (Sigma-Aldrich) at 37° C. for 40 min. The tissue samples were filtered through a 100 μm cell strainer (Falcon, Corning, NY) to collect digested cells. Collected cells were resuspended in phosphate-buffered saline containing FBS and subjected to flow cytometry.
(§2) Cells were lysed using QIAzol lysis reagent (Qiagen, Hilden, Germany). RNA was isolated from cell lysates using an miRNeasy Mini Kit (Qiagen) and subjected to qRT-PCR. Primers targeting Arg1, IL-10, IL-4, TGF-0, IL-12p40, IFN-γ, and R-actin were obtained from Bioneer Inc. (Daejeon, Korea). cDNA was synthesized using a PrimeScript 1st cDNA Synthesis Kit (Takara, Shiga, Japan). qPCR using SYBR Green (Qiagen) was performed on a real time cycler (Bio-Rad, Hercules, CA). R-Actin was used as an endogenous control. Data used to determine relative expression were analyzed according to the Livak method.
To examine the involvement of Olfr78 in lactate-induced M2 polarization of macrophages, the present inventors conducted investigation on whether Olfr78 was expressed in BMDMs isolated from Olfr78^+/+ (WT) and Olfr78^−/− mice. […] Next, the present inventors differentiated BMDMs into M1 and M2 macrophages to investigate whether the expression level of Olfr78 was regulated according to macrophage polarization. Lactate, TCM, and IL-4 were used to stimulate M2 polarization, while lipopolysaccharide (LPS) plus interferon (IFN)-γ (L+I) was used to stimulate M1 polarization. […] To investigate the effect of Olfr78 on macrophage polarization, the present inventors measured the protein levels of M2 macrophage markers such as CD206 (FIG. 1C) and the mRNA levels of IL-4, IL-10, and TGF-β(FIGS. 1E-G), as well as M1 macrophage markers such as CD86 (FIG. 1D) and the mRNA levels of IL-12 and IFN-γ (FIGS. 1H and 1I) when WT and Olfr78^−/− BMDMs were differentiated into M1 and M2 macrophages. […] Next, the present inventors restored Olfr78 expression in Olfr78^−/− BMDMs by transfecting them with a Flag-tagged Olfr78 expression vector.

Olfr78/Gpr132 = biological target: T1, Olfr78/Gpr132 (Mus musculus, UniProt Q8VBV9+Q9Z282); experiment: Luciferase assay in transfected Hana3A cells; conditions: Hana3A cells cotransfected with Olfr78 and Gpr132 vs Olfr78 or Gpr132 alone, FIG. 6D
T1 construct: expressed in transfected cells; host or cells: Hana3A cells
T1 sequence (Q8VBV9 1-320): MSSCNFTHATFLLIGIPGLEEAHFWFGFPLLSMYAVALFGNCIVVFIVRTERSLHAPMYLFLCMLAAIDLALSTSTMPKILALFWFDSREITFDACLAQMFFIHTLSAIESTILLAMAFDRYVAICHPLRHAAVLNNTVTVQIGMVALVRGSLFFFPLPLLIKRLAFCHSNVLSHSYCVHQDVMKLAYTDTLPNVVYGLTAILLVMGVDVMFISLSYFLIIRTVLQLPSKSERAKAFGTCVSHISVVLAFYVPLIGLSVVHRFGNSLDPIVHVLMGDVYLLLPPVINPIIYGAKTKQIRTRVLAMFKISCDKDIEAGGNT
T1 sequence (Q9Z282 1-382): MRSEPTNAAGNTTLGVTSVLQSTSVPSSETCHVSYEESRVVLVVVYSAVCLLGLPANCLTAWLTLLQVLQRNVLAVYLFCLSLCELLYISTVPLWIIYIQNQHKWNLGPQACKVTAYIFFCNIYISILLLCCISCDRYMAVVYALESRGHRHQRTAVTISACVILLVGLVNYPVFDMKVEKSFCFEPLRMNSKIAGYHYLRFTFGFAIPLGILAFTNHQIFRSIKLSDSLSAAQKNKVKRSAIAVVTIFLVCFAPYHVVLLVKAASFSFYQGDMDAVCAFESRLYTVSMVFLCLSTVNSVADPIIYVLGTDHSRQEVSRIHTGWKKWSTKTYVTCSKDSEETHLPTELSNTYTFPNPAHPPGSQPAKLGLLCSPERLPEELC
Protocol: Luciferase assays were performed using the Dual-Glo™ Luciferase Assay System (Promega, Madison, WI). Briefly, Mock-, Olfr78−, Gpr132−, or Olfr78/Gpr132 transiently transfected Hana3A cells were stimulated with various concentrations of sodium lactate diluted in CD293 medium at 37° C. for 4 h. The activity of firefly luciferase was normalized against that of Renilla luciferase. Luminescence was measured on a SpectraMax L microplate reader (Molecular Devices, San Jose, CA).

[1] = tested on: THP-1 human immortalized monocytes; experiment: M1/M2 polarization of PMA-treated THP-1 human monocytes; conditions: for M1 markers such as iNOS, CD86, TNF-α, and IL-12B / M2 markers such as Arg-1, CD163, CD206, and IL-10: OR51E2-depleted THP1 cells vs untreated; for M1 markers such as iNOS, CD86, TNF-α, and IL-12B: FIGS. 3D, 3E, 3I-K; for M2 markers such as Arg-1, CD163, CD206, and IL-10: FIGS. 3D-H; for protein and mRNA levels of OR51E2: FIGS. 2B, 2C; for levels of M2 macrophage markers such as Arg1, CD206, CD163, and IL-10: FIGS. 2D-H
Protocol: as §1, §2
For coimmunoprecipitation assays, cells were lysed with M-PER Mammalian Protein Extraction Reagent (ThermoFisher Scientific, Waltham, MA). Cell lysates were reacted with 2 μg of an antibody against Olfr78 or Gpr132 at 4° C. overnight and then with 100 μl of protein A-agarose beads (ThermoFisher Scientific) at 4° C. for 4 h with agitation. The beads were boiled, and the eluates were subjected to Western blotting with an antibody against Olfr78 or Gpr132. 40 μg of protein was electrophoresed on a 10% SDS-PAGE gel and transferred to a membrane (MilliPore, Burlington, MA). The membrane was reacted with antibodies against iNOS (Abcam, Cambridge, UK), Arg1 (Abcam), and R-actin (Santa Cruz Biotechnology) at 4° C. overnight followed by secondary antibody at room temperature for 2 h, and then exposed to a chemiluminescence substrate (ThermoFisher Scientific). Signals were visualized using an LAS1000 enhanced chemiluminescence detection system (Fuji Film, Minato, Tokyo).
To examine the effect of ORs on M2 polarization of human macrophages, THP-1 human immortalized monocytes were treated with phorbol myristate acetate (PMA) and then with L+I, IL-4, TCM, or lactate.

NC(=O)C(=O)O [OA, oxamic acid] was tested, and the “lactate in TCM” value (lactate dehydrogenase) was “almost completely depleted”.

For CC(=O)O [acetate], the M2 polarization (BMDMs; Olfr78−/− BMDMs, FIGS. 4H-J) was “did not induce M2 polarization” and the “mRNA levels of M2 markers such as IL-4, IL-10, and TGF-β” value (BMDMs; WT BMDMs, FIGS. 4H-J) was “significantly (P<0.001) increased”.

With CC(O)C(=O)[O-].[Na+] (stereo not drawn) [sodium lactate] the Relative luciferase activity (Olfr78/Gpr132) was “significantly higher”.

For lactate, the Olfr78 expression (BMDMs) was “significantly increased”, the “mRNA levels of IL-4, IL-10, and TGF-β (lactate-induced)” value (BMDMs; Gpr132-depleted Olfr78−/− BMDMs, FIGS. 6G-I) was “further reduced” and the “Lactate-induced up-regulation of mRNA levels of M2 cytokines such as IL-4, IL-10, TGF-β, and Arg1” value (BMDMs; Gpr132-depleted WT BMDMs, FIGS. 6G-J) was “significantly (P<0.01) reduced”. The “M2-specific and M1-specific markers” value (BMDMs; Olfr78−/− BMDMs vs untreated, FIGS. 1C-I) was “did not exhibit up-regulation of M2-specific markers or down-regulation of M1-specific markers”, the “protein level of CD206 (M2 marker)” value (BMDMs; WT BMDMs vs untreated, FIG. 1C) was “dramatically (P<0.001) higher” and the “protein level of CD86 (M1 marker)” value (BMDMs; WT BMDMs vs untreated, FIG. 1D) was “significantly lower”. The “mRNA levels of IL-4, IL-10, and TGF-β (M2 markers)” value (BMDMs; WT BMDMs vs untreated, FIGS. 1E-G) was “dramatically (P<0.001) higher”, the “mRNA levels of IL-12 and IFN-γ (M1 markers)” value (BMDMs; WT BMDMs vs untreated, FIGS. 1H and 1I) was “significantly lower” and the “M2 polarization markers, such as CD206, IL-4, IL-10, and TGF-0” value (BMDMs; WT BMDMs vs untreated, FIGS. 4B-E) was “significant up-regulation”. For the same molecule, the “percentage of cells with an elongated shape” value (BMDMs; WT BMDMs vs untreated, FIGS. 4F, 4G) was “increase”, the “M2 polarization of THP-1 human monocytes” value ([1]; FIG. 2 legend) was “induces M2 polarization” and the “M1 markers such as iNOS, CD86, TNF-α, and IL-12B” value [1] was “did not up-regulate M2 markers such as Arg-1, CD163, CD206, and IL-10 (FIGS. 3D-H) or down-regulate M1 markers”. For the same molecule, the “M2 markers such as Arg-1, CD163, CD206, and IL-10” value [1] was “did not up-regulate”, the iNOS levels ([1]; THP-1 cells vs untreated, FIGS. 2D, 2E) was “decreased” and the “protein and mRNA levels of OR51E2” value ([1]; THP-1 cells) was “significantly (P<0.01) increased”. For the same molecule, the “levels of M2 macrophage markers such as Arg1, CD206, CD163, and IL-10” value ([1]; THP-1 cells) was “increased” and the “levels of M1 macrophage markers such as CD86, TNF-α, and IL-12B” value ([1]; THP-1 cells, FIGS. 2I-K) was “did not affect”.

B1: IL-4: recombinant interleukin-4 used to stimulate M2 polarization (protein, UniProt P05112 25-153, looked up)
Interleukin-4: HKCDITLQEIIKTLNSLTEQKTLCTELTVTDIFAASKNTTEKETFCRAATVLRQFYSHHEKDTRCLGATAQQFHRHKQLIRFLKRLDRNLWGLAGLNSCPVKEANQSTLENFLERLKTIMREKYSKCSS
B1 was tested, and the Olfr78 expression (BMDMs) was “significantly increased”, the CD206 (BMDMs; Olfr78−/− BMDMs, FIG. 1C) was “still up-regulated” and the CD86 (BMDMs; Olfr78−/− BMDMs, FIG. 1D) was “down-regulated”. For the same molecule, the “protein level of CD206 (M2 marker)” value (BMDMs; WT BMDMs vs untreated, FIG. 1C) was “up-regulated”, the “protein level of CD86 (M1 marker)” value (BMDMs; WT BMDMs vs untreated, FIG. 1D) was “down-regulated” and the “M1 markers such as iNOS, CD86, TNF-α, and IL-12B” value [1] was “down-regulated”. For the same molecule, the “M2 markers such as Arg-1, CD163, CD206, and IL-10” value [1] was “still up-regulated”, the “protein and mRNA levels of OR51E2” value ([1]; THP-1 cells) was “significantly (P<0.01) increased” and the “levels of M2 macrophage markers such as Arg1, CD206, CD163, and IL-10” value ([1]; THP-1 cells) was “increased”.
